Results published in article PMC3967745 (Journal of medicinal chemistry, 2012).

Columns and labels:
human CB2 receptor [1] = target: T1, human CB2 receptor (Homo sapiens, UniProt P34972); assay: cell-based LANCE cAMP assay in CHO cells stably expressing CB2
[2] = system: normal human mononuclear cells (PBMC); assay: cytotoxicity assay on human mononuclear cells; format: cell-based; conditions: 72 h, PBMC from healthy donors
human CB2 receptor [3] = target: T1, human CB2 receptor; assay: [3H]CP-55,940 radioligand competition binding assay, CB2; conditions: calculated as Ki(CB1)/Ki(CB2) ratio

T1 sequence (P34972 whole entry): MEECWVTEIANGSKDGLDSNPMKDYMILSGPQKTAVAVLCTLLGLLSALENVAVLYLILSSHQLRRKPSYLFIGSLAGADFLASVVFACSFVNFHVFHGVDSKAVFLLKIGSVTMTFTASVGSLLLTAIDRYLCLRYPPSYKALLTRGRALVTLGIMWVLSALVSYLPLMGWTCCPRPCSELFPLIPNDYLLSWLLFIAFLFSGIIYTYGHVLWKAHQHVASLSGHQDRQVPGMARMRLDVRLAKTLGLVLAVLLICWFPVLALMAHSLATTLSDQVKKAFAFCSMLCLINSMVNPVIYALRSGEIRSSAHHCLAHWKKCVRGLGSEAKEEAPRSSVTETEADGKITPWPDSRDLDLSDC

| functional activity at CB2 (human CB2 receptor [1]) | SMILES | further results |
| --- | --- | --- |
| CB2 inverse agonists | O=C(Cc1ccccc1)NC(NC(=O)Cc1ccccc1)c1ccc(N2CCCC2)cc1 [Compound 30, N,N′-((4-(Pyrrolidin-1-yl)phenyl)methylene)bis(2-phenylaceta-mide)] | – |
| CB2 inverse agonists | CC(C)c1ccc(C(NC(=O)Cc2ccccc2)NC(=O)Cc2ccccc2)cc1 [Compound 18, N,N′-((4-Isopropylphenyl)methylene)bis(2-phenylacetamide)] | – |
| CB2 inverse agonists | CCN(CC)c1ccc(C(NC(=O)Cc2ccccc2)NC(=O)Cc2ccccc2)cc1 [Compound 26, N,N′-((4-(Diethylamino)phenyl)methylene)bis(2-phenylaceta-mide)] | cytotoxic effects ([2]; 1 µM): did not show any cytotoxic effects; effects on cell viability ([2]; 10 µM): only slight effects on cell viability |
| CB2 inverse agonists | CCCN(CCC)c1ccc(C(NC(=O)Cc2ccccc2)NC(=O)Cc2ccccc2)cc1 [Compound 27, N,N′-((4-(Dipropylamino)phenyl)methylene)bis(2-phenylaceta-mide)] | – |
| inverse agonists | CN(C)c1ccc(C(NC(=O)Cc2ccccc2)NC(=O)Cc2ccccc2)cc1 [Compound 9, N,N′-((4-(Dimethylamino)phenyl)methylene)bis(2-phenylacetamide)] | – |
| CB2 inverse agonists | CCCCCC(=O)NC(NC(=O)CCCCC)c1ccc(N(CC)CC)cc1 [Compound 59, N,N′-((4-(Diethylamino)phenyl)methylene)dihexanamide] | – |
| – | O=C(Cc1ccc(Cl)cc1)NC(NC(=O)Cc1ccc(Cl)cc1)c1ccc(C(F)(F)F)cc1 [Compound 39, N,N′-((4-(Trifluoromethyl)phenyl)methylene)bis(2-(4-chlorophenyl)acetamide)] | SI: selectivity index for CB2 (human CB2 receptor [3]): >198 |
